This is an account of results in patent USRE47141E1, “Methods of treating fibrosis, cancer and vascular injuries” (EWHA University—Industry Collaboration Foundation, priority 2010, dated 2018).

The test system of the test is BALB/c 4T1 xenografted mice. The test is described as follows: Anti-metastatic effect on BALB/c 4T1 xenografted mice model. In kind it is in vivo. How it is done:
Female BALB/c mice were purchased from Orient Bio Inc. (Seoul, Korea). Animals were maintained in a temperature-controlled room (22° C.) and supplied with food and water ad libitum. 4T1 cells (1.2×10^4 cells) were suspended in PBS and implanted into the left #4 mammary fat pad of five to six-week-old female BALB/c mice (day 0). In Experiment 1, treatment was started after tumor implantation (day 0). […] In Experiment 2, treatment was started on day 4. […] In Experiment 3, treatment was started on day 4. […] In Experiment 4, 4T1 cells (1×10^4 cells) were suspended in PBS and implanted into the left #4 mammary fat pad of ten-week-old female BALB/c mice (day 0). Treatment was started on day 10. Example 61 (43.6 mg/kg) dissolved in saline was given to mice intraperitoneally every other day for 2.5 weeks. In all Experiments, mice were sacrificed at 24 to 72 h after the last dosing, and 15% India ink solution (Hardy Diagnostics) in PBS was immediately injected into the trachea. […] Number of metastatic nodule was counted on the surface of left lobe of lung, and picture of lung was taken with digital camera. The tumor size was measured using calipers, and the tumor volume was calculated by using the following equation: Tumor volume=(0.5236)×(width)^2×(length)
Either vehicle buffer (4 mM HCl, 1 mg/mL BSA) or TGF-β1 (50 ng/mouse) in vehicle buffer was given to mice intravenously at 2 h before mice were sacrificed. Tumor tissues from mice were lysed in RIPA buffer [50 mM Tris, pH 7.5, 150 mM NaCl, 0.1% sodium dodecyl sulfate, 0.5% sodium deoxycholate, 1% NP-40, 1 mM NaF, 1 mM Na3VO4, 1 mM PMSF, a protease inhibitor cocktail (1 tablet of Roche Diagnostics GmbH protease inhibitor cocktail/10 mL) (Roche)] for 20 min on ice. Lysates were cleared by centrifugation at 13000 rpm at 4° C. for 20 min. Protein content of supernatants was determined using Micro-BCA (bicinchoninic acid) protein assay kit (Thermo Scientific). Lysates containing 20-50 μg total protein were separated by electrophoresis on polyacrylamide gel and then electrophoretically transferred to polyvinylidene difluoride transfer membranes (Millipore, Billerica, Mass., USA). Membranes were blocked with 5% BSA (Sigma-Aldrich) in PBS containing 0.5% Tween-20 (PBST) for 1 h and incubated overnight at 4° C. with one of following antibodies: anti-phospho-Smad2 (Millipore), anti-Smad2/3 (BD Transduction Laboratories, NJ, USA), or anti-β-actin (Sigma-Aldrich) in PBST containing 1% BSA. […] Bound antibodies were detected using Western Blotting Luminol Reagent (SantaCruz Biotechnology). Band intensities were analyzed using a densitometer LAS-3000 imager (FUJIFILM, Tokyo, Japan).

As for `Cc1cccc(-c2[nH]c(CNc3ccccc3F)nc2-c2ccc3ncnn3c2)n1` [Example 2, N-((4-([1,2,4]triazolo[1,5-a]pyridin-6-yl)-5-(6-methylpyridin-2-yl)-1H-imidazol-2-yl)methyl)-2-fluoroaniline], the “number of metastastic nodules on the lung” value (Example 3 13.6 or 27.3 mg/kg orally BID, four weeks, Example 2 5, 10, 20, or 40 mg/kg orally, Example 61 43.6 mg/kg intraperitoneally every other day, 2.5 weeks) was “significantly reduced”. In addition, the “TGF-β1-induced Smad2 phosphorylation in tumor tissues” value (Experiment 3, 5, 10, 20, or 40 mg/kg orally every other day for 24 days, Western blot) is “suppressed”.
